Source: patent US20260021167A1, “COMPOSITIONS AND METHODS FOR TREATING OR PREVENTING NEURODEGENERATIVE DISEASES” (Delaware State University, priority 2022, published 2026)

How the values were obtained:
[1] = Passage of the BBB in mice; format: in vivo, mouse; settings: 10 or 50 mg/kg
SENP-1 = molecular target: T1, SENP-1 (Rattus norvegicus, UniProt A0A0G2JVG1); assay: Western blot of SENP-1 level in PFF-exposed N27p cells; format: cell-based; settings: PFF exposure, compared with PFF only
T1 construct: endogenous in cells; host or cells: N27p (N27 parental) rat dopaminergic cells
T1 sequence (A0A0G2JVG1 1-672): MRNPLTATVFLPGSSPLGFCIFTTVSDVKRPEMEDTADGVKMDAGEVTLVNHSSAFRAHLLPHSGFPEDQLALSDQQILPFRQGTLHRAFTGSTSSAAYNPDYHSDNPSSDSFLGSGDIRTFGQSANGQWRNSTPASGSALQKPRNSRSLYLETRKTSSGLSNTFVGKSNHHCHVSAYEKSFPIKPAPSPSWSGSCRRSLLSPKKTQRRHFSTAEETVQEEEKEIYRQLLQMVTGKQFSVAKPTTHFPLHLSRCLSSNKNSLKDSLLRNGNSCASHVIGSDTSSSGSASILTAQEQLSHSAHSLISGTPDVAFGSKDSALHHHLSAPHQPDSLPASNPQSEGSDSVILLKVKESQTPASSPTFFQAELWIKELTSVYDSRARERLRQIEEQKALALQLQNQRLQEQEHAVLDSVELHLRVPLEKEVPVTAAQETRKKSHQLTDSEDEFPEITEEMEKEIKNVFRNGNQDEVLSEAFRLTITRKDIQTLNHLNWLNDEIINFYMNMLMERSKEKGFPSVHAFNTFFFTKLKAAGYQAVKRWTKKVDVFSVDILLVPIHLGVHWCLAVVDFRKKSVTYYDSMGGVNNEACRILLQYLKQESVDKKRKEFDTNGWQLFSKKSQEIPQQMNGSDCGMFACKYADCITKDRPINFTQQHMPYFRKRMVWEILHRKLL
Excerpt: A) The RNA interference suppressed the expression level of SENP-1, which enhanced SUMO-1 level. […] One-Way ANOVA, Dunnett's test was applied for statistical analysis in comparison with PFF only (#). *: p<0.05, **: p<0.01, p<0.001 and n.s.: not significant.

PFF-injected old mice = assay: Pole test in PFF-injected mice; format: in vivo, mouse; settings: 10 and/or 50 mg/kg oral, vs PFF only
Experimental: (§1) A mouse model of Parkinson's disease is C57BL/6 male or female mice (50% each) injected with 5 μg of mouse PFF at 12 months old, followed by a treatment below for 6-7 weeks: • 1) without PFF injection, followed by vehicle (control, n=7); • 2) PFF injection, followed by vehicle (PFF only: control, n=8); • 3) PFF injection, followed by daily 10 mg/kg Momordin gavage (n=7-8); • 4) PFF injection, followed by daily 50 mg/kg Momordin gavage (n=7-8).
Pole Test. All the mice were placed on a vertical pole with their face up and habituated to face down the pole to climb down for 5 consecutive days. The time taken for a mouse to turn and position for the descend was noted, and the latency for climb-down was counted. A mouse falling off or slipping down the pole without turning was considered a failure. Videos of the pole test were taken and analyzed by a blinded rater to record the total climb-down or turn time. Minimal 5 trials were performed for each animal, and the average of 5 trials was considered as the final score for data presentation.

[2] = system: phosphorylated α-synuclein; assay: Western blot of phosphorylated α-synuclein in α-synuclein IP tissue samples; format: in vivo, mouse; settings: PFF-injected mice, vs PFF only
Experimental: A) In Western blots, Momordin reversed the toxicity from PFF injection in reducing phospho-α-synuclein and SENP-1 on α-synuclein in the MB and STR. […] A pathological marker, phosphorylated α-synuclein was increased by PFF injection, which was reversed by Momordin treatment in the MB (F) and the STR (G).
as §1

N27 cells = assay: ROS level (CellROX deep red) after PFF treatment; format: cell-based, rat; settings: compared to PFF only control
Experimental: ROS Levels and Thioflavin-T Assessment. The reactive oxygen species (ROS) is a released byproduct during oxidative stress. On the other hand, thioflavin-T is an assay used to understand the level of protein aggregation that can be detrimental to cell survival. In order to assess the level of oxidative stress, all the SENP-1 inhibitors treated cells were incubated in media containing 5 μg/mL of the ROS reagent CellROX deep red reagent (C10422, Thermo Fisher Scientific) and 25 μg/mL of thioflavin-T reagent (CAS: 2390-54-7, Acros Organics) at 37° C. for 30 min. The cells were then washed 3 times with warm phosphate-buffered saline (PBS) without Ca^2+ or Mg^2+ (137 mM NaCl, 2.7 mM KCl, 4.3 mM Na2HPO4, and 1.47 mM KH2PO4), and several images from each well were collected using EVOS FL Cell Imaging Systems (Invitrogen, MA, USA). A minimum of 2 wells were dedicated to each group, and the experiments were repeated 3-4 times independently (total replicated: n=8-10/group). The intensity of red fluorescence corresponding to ROS levels and green labels corresponding to protein aggregation was analyzed by blinded raters using ImageJ.

[3] = low and high dosages (10 or 50 mg/kg)

## CC1(C)CC[C@]2(C(=O)O)CC[C@]3(C)C(=CC[C@@H]4[C@@]5(C)CC[C@H](O[C@@H]6O[C@H](C(=O)O)[C@@H](O)[C@H](O[C@@H]7OC[C@@H](O)[C@H](O)[C@H]7O)[C@H]6O)C(C)(C)[C@@H]5CC[C@]43C)[C@@H]2C1 [Momordin lc]
[1]
  passage of the BBB: effectively pass the BBB
SENP-1
  level of SENP-1 (Western blot): reduced the level of SENP-1
PFF-injected old mice
  climb-down time in pole tests: reduces
  turn time in pole tests: reduces
[2]; midbrain
  phosphorylated α-synuclein in the MB (α-synuclein IP): reversed
[2]; striatum
  phosphorylated α-synuclein in the STR (α-synuclein IP): reversed
N27 cells
  level of ROS: reduced the level of ROS
[3]
  safety in mice: safe
